{"source": "BindingDB's records for doi:10.1124/jpet.301.3.1166", "about": "(University of North Carolina, 2002)", "key": {"D(2) dopamine receptor": {"target": "D(2) dopamine receptor (Rattus norvegicus, UniProt P61169)", "sequence (P61169 whole entry)": "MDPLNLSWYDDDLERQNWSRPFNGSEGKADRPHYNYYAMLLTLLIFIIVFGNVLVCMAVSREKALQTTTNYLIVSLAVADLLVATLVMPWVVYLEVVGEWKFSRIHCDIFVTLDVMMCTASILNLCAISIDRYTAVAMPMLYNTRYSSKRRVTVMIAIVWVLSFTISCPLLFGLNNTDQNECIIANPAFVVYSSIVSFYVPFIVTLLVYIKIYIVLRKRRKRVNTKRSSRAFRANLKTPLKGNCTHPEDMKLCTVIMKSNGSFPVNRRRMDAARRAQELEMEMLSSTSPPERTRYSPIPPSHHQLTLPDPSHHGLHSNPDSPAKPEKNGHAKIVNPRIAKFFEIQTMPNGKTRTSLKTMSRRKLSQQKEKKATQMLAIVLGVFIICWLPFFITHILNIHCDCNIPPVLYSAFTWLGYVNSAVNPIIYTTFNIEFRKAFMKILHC"}, "D(1A) dopamine receptor": {"target": "D(1A) dopamine receptor (Rattus norvegicus, UniProt P18901)", "sequence (P18901 whole entry)": "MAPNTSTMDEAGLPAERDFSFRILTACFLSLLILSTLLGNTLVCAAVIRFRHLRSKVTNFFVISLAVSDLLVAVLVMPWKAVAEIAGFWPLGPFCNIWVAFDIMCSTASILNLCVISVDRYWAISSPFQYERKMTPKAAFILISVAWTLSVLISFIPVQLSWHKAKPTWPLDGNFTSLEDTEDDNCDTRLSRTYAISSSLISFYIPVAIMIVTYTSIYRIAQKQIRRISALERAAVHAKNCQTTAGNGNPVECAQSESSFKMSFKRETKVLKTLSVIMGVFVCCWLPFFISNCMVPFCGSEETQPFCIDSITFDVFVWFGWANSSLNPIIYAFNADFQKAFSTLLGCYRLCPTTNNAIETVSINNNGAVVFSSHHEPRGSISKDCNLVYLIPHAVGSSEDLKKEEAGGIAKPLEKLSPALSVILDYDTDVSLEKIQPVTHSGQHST"}}, "note": "“And” between values parts separate entries of the source, which are not always exact repeats. Identical values can stand only once."}
{"smiles": "CCCN1Cc2ccccc2[C@@H]2c3cc(O)c(O)cc3CC[C@H]21", "note": "[N-n-propyldihydrexidine, N-Pr-DHX]", "values": [{"measurement": "Ki", "setting": "D(2) dopamine receptor", "result": "6.5 nM and 20 nM"}, {"measurement": "Ki", "setting": "D(1A) dopamine receptor", "result": 320, "unit": "nM"}]}
